Measured values: US10022412B2, “Composition for preventing or alleviating periodontal diseases, containing, as active ingredient, mangosteen extract or α- or γ-mangosteen” (Medi Bio Lab. co., Ltd., priority 2014, dated 2018)
Converted amounts (≈) assume the structure as drawn. Like-named read-outs stand apart in the source and are kept apart here.

Tested on: Streptococcus mutans ATCC 25175
Assay: MIC test for Streptococcus mutans (NCCLS)
Type: cell-based
From the text: Generally there are minimum inhibitory concentration (hereinafter, referred to MIC) test and time-kill assay test as test methods that become the standard for judging utility of antibiotics, when a new antibiotics is developed.
MIC TEST is a test method deciding minimum inhibitory concentration where bacteria cannot grow well, namely minimal usage of antibiotics for obtaining purposed antibacterial efficacy, and Time-Kill assay test is a test method deciding usage of antibiotics that can maintain purposed efficacy for certain time range. Each test was performed, in order to test whether mangosteem extracts have proliferation inhibiting efficacy against Streptocccus Mutans (Streptocccus Mutans ATCC […]) to a certain degree.
MIC test for Streptococcus mutans (Streptococcus mutans ATCC 25175) was progressed according to the American clinical test standard method, NCCLS (National Committee for Clinical Laboratory Standards). To do comparative test of antibacterial ability of mangosteen extracts against Streptococcus mutans, after preparing each analysis sample as shown in the following table 5, that is the concentration of each analysis sample was 0, 1, 2, 3, 4, 5, 6, 7, 8, 9 and 10 ul, and the concentration of used Streptococcus mutans bacteria finally became 1×10^5 at the ratio of 50% by weight, and the concentration of DMSO (dimethyl sulfoxide) used as an analysis sample solvent finally became 1% by weight, and BHI medium (Brain heart infusion: Peptic Digest of Animal tissue, Sodium Chloride, Dextrose, Pancreatic Digest of Gelation, Disodium Phosphate, Final PH7.4+-0.2; Difco Company) was added for the remaining 40% by weight, they were used for the test. […]
After adding the samples in a microtube (duplicate) and culturing at 37° C. for 24 hrs, growth inhibit ion degree was observed by measuring absorbance at 500 nm.

| MIC (S. mutans ATCC 25175, 37° C. 24 hrs, absorbance 500 nm) | MIC (Streptococcus mutans, ATCC25175, S. mutans ATCC 25175, 37° C. 24 hrs, absorbance 500 nm, read-out: MIC) [µg/mL] | Structure (SMILES) | MIC (Streptococcus mutans, ATCC25175, 24 h) [µg/mL] |
| --- | --- | --- | --- |
| 1.0(ug/ml) | 1 (≈ 2.44 µM) | COc1c(O)cc2oc3cc(O)c(CC=C(C)C)c(O)c3c(=O)c2c1CC=C(C)C [Alpha-mangosteen, alpha-mangosteen] | – |
| – | – | CC(C)=CCc1c(O)cc2oc3cc(O)c(O)c(CC=C(C)C)c3c(=O)c2c1O [Gamma-mangosteen, gamma-mangosteen] | 4 (≈ 10.1 µM) |
